Experiments:
[1] = tested on: E. coli and S. aureus DNA gyrase; conditions: in vitro; cited from earlier work
E. coli DNA gyrase = E. coli DNA gyrase (Escherichia coli, UniProt P0AES4+P0AES6); assay: in vitro dsDNA break; format: biochemical; conditions: 1 tested at ≤3.3 mM
Chain of E. coli DNA gyrase (P0AES4 whole entry, one chain of several): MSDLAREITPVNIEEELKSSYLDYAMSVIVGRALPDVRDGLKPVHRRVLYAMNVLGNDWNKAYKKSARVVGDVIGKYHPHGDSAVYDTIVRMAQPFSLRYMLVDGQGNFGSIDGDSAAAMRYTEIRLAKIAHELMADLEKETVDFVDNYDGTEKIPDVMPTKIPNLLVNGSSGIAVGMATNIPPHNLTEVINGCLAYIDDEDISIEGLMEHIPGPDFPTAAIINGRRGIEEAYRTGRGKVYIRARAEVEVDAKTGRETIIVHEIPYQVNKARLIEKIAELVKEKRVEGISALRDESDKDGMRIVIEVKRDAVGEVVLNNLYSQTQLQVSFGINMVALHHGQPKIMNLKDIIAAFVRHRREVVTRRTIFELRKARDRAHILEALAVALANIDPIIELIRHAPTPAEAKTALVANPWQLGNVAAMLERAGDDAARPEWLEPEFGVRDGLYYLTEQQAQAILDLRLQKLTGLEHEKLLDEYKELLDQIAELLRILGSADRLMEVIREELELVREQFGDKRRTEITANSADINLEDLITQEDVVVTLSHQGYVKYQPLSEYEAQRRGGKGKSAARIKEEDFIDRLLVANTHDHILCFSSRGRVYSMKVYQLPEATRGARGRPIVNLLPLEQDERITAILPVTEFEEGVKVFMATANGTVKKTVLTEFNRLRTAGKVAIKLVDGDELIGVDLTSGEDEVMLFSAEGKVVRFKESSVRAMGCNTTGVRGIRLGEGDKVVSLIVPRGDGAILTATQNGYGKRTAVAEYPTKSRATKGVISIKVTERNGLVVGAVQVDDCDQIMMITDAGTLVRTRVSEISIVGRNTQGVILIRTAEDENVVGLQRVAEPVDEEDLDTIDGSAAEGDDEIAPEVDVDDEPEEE

Row | SMILES | release of dsDNA ends [1] | generation of dsDNA breaks / linearized DNA (E. coli DNA gyrase)
1 | COc1ccc2ncc(F)c([C@@H](O)CC[C@@H]3CCN(CCSc4cccs4)C[C@@H]3C(=O)O)c2c1 [NXL101] | does not release dsDNA ends | 
2 | O=C(O)c1cn(C2CC2)c2cc(N3CCNCC3)c(F)cc2c1=O [ciprofloxacin] |  | production of dsDNA breaks

— paper PMC3088120 (ACS medicinal chemistry letters, 2011)
